Assay results taken from patent US20230174488A1 (priority 2020, published 2023).
Converted amounts (≈) assume the structure as drawn. Like-named read-outs stand apart in the source and are kept apart here.

Experiments:
SARS-CoV-2 M^PRO [1] = target: T1, SARS-CoV-2 M^PRO (Severe acute respiratory syndrome coronavirus 2, UniProt P0DTD1); assay: biochemical; assay type: biochemical; conditions: In vitro potency data; 30 min pre-incubation, 25 nM M^pro, 25 µM substrate; read-out: IC50
[2] = assay type: in vitro ADME; conditions: human, microsomes
Procedure: (§1) Cold ACN, including 100 ng/ml tolbutamide and 100 ng/ml labetalol as internal standard (IS), was used for the stop solution. Compound or control working solution (10 µl per well) was added to all plates (T0, T5, T10, T20, T30, T60, and NCF60), except the matrix blank. Dispensed microsome solution (80 µl per well) was added to every plate by Apricot and the mixture of microsome solution and compound was incubated at 37° C. for approximately 10 min. After prewarming, a dispensed NADPH regenerating system (10 µl per well) was added to every plate by Apricot to start a reaction. The solution was then incubated at 37° C. Stop solution (300 µl per well, 4° C.) was then added to terminate the reaction. The sampling plates were shaken for approximately 10 minutes. The samples were centrifuged at 4,000 rpm. for 20 min at 4° C. While centrifuging, new 8×96-well plates were loaded with 300 µl HPLC water, and then 100 µl supernatant was transferred and mixed for liquid chromatography-tandem mass spectrometry (LC/MS/MS).

[3] = Microsomal stability, mouse liver microsomes; assay type: in vitro ADME; conditions: CD-1, mouse
Procedure: as §1

Caco-2 permeability = assay type: in vitro ADME; conditions: human, Caco-2, pH 7.4
Procedure: Medium was refreshed every 4 \~5 days until the 21st to 28th day for confluent cell monolayer formation. The transport buffer was HBSS with 10 mM HEPES at pH=7.40±0.05. […] Final DMSO concentration was adjusted to less than 1%. The plate was incubated for 2 h in the CO2 incubator at 37±1° C., with 5% CO2 at saturated humidity without shaking. All the samples were then mixed with acetonitrile containing internal standard and centrifuged at 3200 xg for 10 min. For nadolol and metoprolol, 100 µL supernatant solution was diluted with 300 µL distilled water for LC-MS/MS analysis. For digoxin and test compounds, 100 µL supernatant solution was diluted with 100 µL distilled water for LC-MS/MS analysis. Concentrations of test and control compounds in starting solution, donor solution, and receiver solution were quantified by LC-MS/MS methodologies, using peak area ratio of analyte/internal standard. After transport assay, lucifer yellow rejection assay was applied to determine the Caco-2 cell monolayer integrity. The apparent permeability coefficient Papp (cm/s) was calculated using the equation:
where d/Cr/6t is the cumulative concentration of compound in the receiver chamber as a function of time (µM/s); Vr is the solution volume in the receiver chamber (0.075 mL on the apical side, 0.25 mL on the basolateral side); A is the surface area for the transport, i.e. 0.0804 cm^2 for the area of the monolayer; C0 is the initial concentration in the donor chamber (µM).
The efflux ratio was calculated using the equation:
where Vd is the volume in the donor chambers (0.075 mL on the apical side, 0.25 mL on the basolateral side); Cd and Cr are the final concentrations of the transport compound in donor and receiver chambers, respectively.

PAMPA permeability assay = assay type: in vitro ADME
Procedure: 2.6 g KH2PO4 and 18.5 g K3PHO4×3H2O were dissolved in 1000 mL of ultra-pure water, mixed thoroughly. The pH was adjusted to 7.40 ± 0.05, using either 1 M sodium hydroxide or 1 M hydrochloric acid. 0.2 mM working solution was prepared by diluting 10 mM stock solution with DMSO. 10 µM donor solution (5% DMSO) was prepared by diluting 20 µL of working solution with 380 µL PBS. 150 µL of 10 µM donor solutions to each well of the donor plate, whose PVDF membrane was precoated with 5 µL of 1% lecithin/dodecane mixture. Duplicates were prepared. 300 µL of PBS was added to each well of the PTFE acceptor plate. The donor plate and acceptor plate were combined together and incubated for 4 h at room temperature with shaking at 300 rpm. […] Preparation of acceptor sample: the plate was removed from the incubator. 270 µL solution was transferred from each acceptor well and mixed with 130 µL ACN (containing internal standard) as acceptor sample. […] Acceptor samples and donor samples were all analyzed by LC-MS/MS.

Plasma stability, mice = assay type: in vitro ADME; conditions: mouse
Procedure: (§2) Propantheline bromide was used as a reference compound in this assay. The pooled frozen plasma was thawed in a water bath at 37° C. prior to experiment. Plasma was centrifuged at 4000 rpm for 5 min and the clots were removed if any. The pH will be adjusted to 7.4 ± 0.1 if required.
(§3) Preparation of compounds: 1 mM intermediate solution was prepared by diluting 10 µL of the stock solution with 90 µL DMSO; 1 mM intermediate of positive control Propantheline was prepared by diluting 10 µL of the stock solution with 90 µL ultrapure water. For test compounds, 100 µM dosing solution was prepared by diluting 10 µL of the intermediate solution (1 mM) with 90 µL DMSO. […] 98 µL of blank plasma was spiked with 2 µL of dosing solution (100 µM) to achieve 2 µM of the final concentration in duplicate and samples were Incubated at 37° C. in a water bath. […] Centrifuged sample plates at 4,000 rpm for 10 min. An aliquot of supernatant (50 µL) was transferred from each well and mixed with 100 µL ultra-pure water. The samples were shaken at 800 rpm for about 10 min before submitting to LC-MS/MS analysis. The % remaining of test compound after incubation in plasma was calculated using following equation:
(§4) where PAR is the peak area ratio of analyte versus internal standard (IS).

Plasma stability, human = assay type: in vitro ADME; conditions: pH 7.4
Procedure: as §2, §3, §4

physchem = conditions: water, kinetic from dmso stock
in vitro [4] = conditions: mouse
in vitro [5] = conditions: human
CYP 2C9 = CYP 2C9 (Homo sapiens, UniProt P11712); assay: biochemical
Sequence of CYP 2C9 (P11712 whole entry): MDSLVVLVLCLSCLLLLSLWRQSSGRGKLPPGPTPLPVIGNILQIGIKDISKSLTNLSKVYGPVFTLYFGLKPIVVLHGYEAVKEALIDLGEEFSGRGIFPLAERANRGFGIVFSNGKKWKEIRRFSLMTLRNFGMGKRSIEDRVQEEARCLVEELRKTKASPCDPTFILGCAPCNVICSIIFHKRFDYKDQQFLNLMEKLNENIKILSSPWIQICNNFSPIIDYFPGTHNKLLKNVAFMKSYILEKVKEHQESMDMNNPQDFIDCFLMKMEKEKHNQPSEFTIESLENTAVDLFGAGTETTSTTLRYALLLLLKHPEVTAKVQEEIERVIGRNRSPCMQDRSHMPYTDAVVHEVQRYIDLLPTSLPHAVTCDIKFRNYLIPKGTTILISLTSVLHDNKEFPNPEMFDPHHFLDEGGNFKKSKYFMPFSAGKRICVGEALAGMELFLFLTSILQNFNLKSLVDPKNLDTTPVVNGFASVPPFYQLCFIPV
Procedure: (§5) The following reagents/reactants were used in the assay: water was purified by ELGA Lab purification systems, buffer solution: PB (100 mM), MgCl2 (33 mM), organic solvents were AR or HPLC grade, CYP substrates: phenacetin (10 µM, 25 µL, 1A2), diclofenac (5 µM, 25 µL, 2C9), S-mephenytoin (30 µM, 75 µL, 2C19), dextromethorphan (5 µM, 12,5, 2D6), and midazolam (2 µM, 10 µL, 3A4), stock solutions were prepared in MeOH (20, 10, 20, 20, and 10 mM, respectively). Positive controls: α-naphthoflavone, sulfaphenazole, (+)-N-3-benzylnirvanol, quinidine, and ketoconazole, final concentration was 3 µM in MeOH (90 µL), stock solutions were prepared in DMSO (3 mM for all the inhibitors). Test compounds were evaluated using five conc. points at the range of 15-5,000 µM. […] Main procedure: working solution (100×) of the test compound and standard inhibitors were prepared, microsomes were pulled out of the -80° C. freezer to thaw on ice, labeled the date and put it back to the freezer immediately after use. Substrates (20 µL) and PB (20 µL) were added to corresponding wells and Blank wells, respectively. […] HLM working solution (158 µL) was added to all wells of the incubation plate. Plate was pre-warmed for about 10 min at 37° C. in a water bath, then NADPH (20 µL) was added to all incubation wells. CYPs were mixed and incubated for 10 min at 37° C. in a water bath. The reaction was terminated at the time point by adding a 400 µL cold stop solution (200 ng/mL tolbutamide and labetalol in ACN). Samples were centrifuged at 4000 rpm for 20 minutes to precipitate protein. Supernatant (200 µL) was transferred to 100 µL HPLC water and shaken for 10 min, then samples were subjected for LC/MS/MS analysis. XL fit was used to plot the percent of vehicle control vs the test compound concentrations, and for non-linear regression analysis of the data. IC50 values were determined using 3- or 4-parameter logistic equations.

CYP 1A2 = target: T2, CYP 1A2 (Homo sapiens, UniProt P05177); assay: CYP inhibition assay, 1A2
T2 sequence (P05177 1-516): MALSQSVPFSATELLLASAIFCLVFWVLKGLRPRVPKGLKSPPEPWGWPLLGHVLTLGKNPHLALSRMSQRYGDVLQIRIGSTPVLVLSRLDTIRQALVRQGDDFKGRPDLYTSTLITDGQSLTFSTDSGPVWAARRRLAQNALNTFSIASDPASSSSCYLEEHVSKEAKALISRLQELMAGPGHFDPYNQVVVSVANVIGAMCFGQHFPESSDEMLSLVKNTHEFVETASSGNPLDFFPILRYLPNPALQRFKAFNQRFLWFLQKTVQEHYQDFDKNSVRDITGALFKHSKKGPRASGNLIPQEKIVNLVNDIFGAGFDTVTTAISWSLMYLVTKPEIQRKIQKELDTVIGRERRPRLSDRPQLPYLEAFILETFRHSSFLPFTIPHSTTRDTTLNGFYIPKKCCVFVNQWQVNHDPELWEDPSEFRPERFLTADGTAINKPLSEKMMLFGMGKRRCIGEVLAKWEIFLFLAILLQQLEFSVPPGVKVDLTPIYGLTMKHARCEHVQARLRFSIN
Procedure: as §5

CYP 2D6 = CYP 2D6 (Homo sapiens, UniProt P10635); assay: CYP inhibition assay, 2D6
Sequence of CYP 2D6 (P10635 whole entry): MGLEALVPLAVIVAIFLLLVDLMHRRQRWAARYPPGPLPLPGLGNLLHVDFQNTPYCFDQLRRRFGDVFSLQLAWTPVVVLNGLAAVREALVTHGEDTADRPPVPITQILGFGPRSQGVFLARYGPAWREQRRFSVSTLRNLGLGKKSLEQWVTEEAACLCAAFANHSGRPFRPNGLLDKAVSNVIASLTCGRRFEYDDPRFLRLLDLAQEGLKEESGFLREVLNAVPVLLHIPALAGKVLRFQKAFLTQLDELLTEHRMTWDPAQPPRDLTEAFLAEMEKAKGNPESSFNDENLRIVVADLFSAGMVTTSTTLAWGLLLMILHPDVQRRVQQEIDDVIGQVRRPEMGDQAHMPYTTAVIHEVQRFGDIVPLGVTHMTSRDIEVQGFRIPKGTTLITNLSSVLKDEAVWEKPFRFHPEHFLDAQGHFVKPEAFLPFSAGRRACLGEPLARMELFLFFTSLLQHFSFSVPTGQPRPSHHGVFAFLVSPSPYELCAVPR
Procedure: as §5

CYP 3A4 = CYP 3A4 (Homo sapiens, UniProt P08684); assay: CYP inhibition assay, 3A4
Sequence of CYP 3A4 (P08684 whole entry): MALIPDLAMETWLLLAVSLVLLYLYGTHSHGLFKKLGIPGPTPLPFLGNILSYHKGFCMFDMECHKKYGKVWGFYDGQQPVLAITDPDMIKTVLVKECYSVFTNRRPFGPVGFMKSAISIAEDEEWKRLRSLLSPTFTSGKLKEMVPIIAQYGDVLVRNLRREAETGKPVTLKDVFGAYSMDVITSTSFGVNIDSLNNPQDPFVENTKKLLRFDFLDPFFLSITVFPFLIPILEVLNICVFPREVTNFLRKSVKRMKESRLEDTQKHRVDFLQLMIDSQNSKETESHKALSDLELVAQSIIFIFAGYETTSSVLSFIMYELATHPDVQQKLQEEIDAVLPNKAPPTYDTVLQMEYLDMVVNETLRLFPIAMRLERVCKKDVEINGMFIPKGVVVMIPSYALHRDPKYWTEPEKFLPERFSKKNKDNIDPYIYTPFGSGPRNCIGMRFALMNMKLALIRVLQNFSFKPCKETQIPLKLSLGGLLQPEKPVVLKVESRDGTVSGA
Procedure: as §5

CYP 2C19 = CYP 2C19 (Homo sapiens, UniProt P33261); assay: CYP inhibition assay, 2C19
Sequence of CYP 2C19 (P33261 whole entry): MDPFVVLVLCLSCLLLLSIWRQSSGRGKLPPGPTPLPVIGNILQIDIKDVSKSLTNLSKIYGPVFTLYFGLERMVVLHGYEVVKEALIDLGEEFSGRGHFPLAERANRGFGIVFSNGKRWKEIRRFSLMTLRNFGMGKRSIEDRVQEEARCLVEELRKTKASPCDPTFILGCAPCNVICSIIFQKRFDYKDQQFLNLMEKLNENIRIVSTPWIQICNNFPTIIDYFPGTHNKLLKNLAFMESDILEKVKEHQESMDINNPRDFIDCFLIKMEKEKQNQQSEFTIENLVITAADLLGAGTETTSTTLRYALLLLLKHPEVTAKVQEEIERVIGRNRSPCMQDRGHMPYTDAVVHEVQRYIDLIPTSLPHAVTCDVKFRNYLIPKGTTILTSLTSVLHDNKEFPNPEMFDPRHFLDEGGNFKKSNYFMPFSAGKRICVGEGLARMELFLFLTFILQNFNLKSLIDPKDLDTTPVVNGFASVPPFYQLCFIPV
Procedure: as §5

SARS-CoV-2 = assay: In vitro antiviral cell-based assay (live SARS-CoV-2 IFA) in Vero cells; conditions: Severe acute respiratory syndrome coronavirus 2, MOI ~0.0125, 24 hpi
[6] = mouse, plasma
[7] = plasma
in vitro [8] = conditions: African green monkey
SARS-CoV-2 M^PRO [9] = target: T1, SARS-CoV-2 M^PRO; assay: Crystal structure of ligand bound to SARS-CoV-2 M^pro; conditions: X-ray, complex with SARS-CoV-2 M^pro
[10] = Cytotoxicity (CC50) in Vero cells; conditions: African green monkey

## CC(C(=O)NC1CCC(F)(F)CC1)(c1cncnc1)N(C(=O)CCl)c1ccc(-c2ccno2)cc1 (single isomer, unassigned) [INSCoV-601P(1A), 2-(2-Chloro-N-(4-(isoxazol-5-yl)phenyl)acetamido)-N-(4,4-difluorocyclohexyl)-2-(pyrimidin-5-yl)propanamide]
SARS-CoV-2 M^PRO [1]
  IC50: 140 nM
[2]
  microsomal CLint: 66 µL/min/mg
[3]
  microsomal CLint: 102 µL/min/mg
Caco-2 permeability
  Papp A→B at 2 h, 2 µM: < 0.48 ×10⁻⁶ cm/s
  efflux ratio at 2 h, 2 µM: > 0.489
PAMPA permeability assay; pH 7.4
  Papp at 4 h, 10 µM: 0.626 ×10⁻⁶ cm/s
Plasma stability, mice; pH 7.4
  half-life at 2 µM: 13.1 min
Plasma stability, human
  half-life at 2 µM: 16.3 min
physchem
  solubility kinetic: 142 µM (≈ 71.6 µg/mL)
In vitro [4]
  recovery: 2.8%
In vitro [5]
  recovery: 1.3%
CYP 2C9
  IC50: > 50 µM
CYP 1A2
  IC50: > 50 µM
CYP 2D6
  IC50: 6.12 µM
CYP 3A4
  IC50: 3620 nM
CYP 2C19
  IC50: > 50 µM

## O=C(NC1CCC(F)(F)CC1)[C@@H](c1cncnc1)N(C(=O)[C@@H](F)Cl)c1ccc(-c2cncs2)cc1 (single isomer, unassigned) [INSCoV-614(1B), 2-Chloro-N-(2-((4,4-difluorocyclohexyl)amino)-2-oxo-1-(pyrimidin-5-yl)ethyl)-2-fluoro-N-(4-(thiazol-5-yl)phenyl)acetamide]
SARS-CoV-2 M^PRO [1]
  IC50: 60 nM
SARS-CoV-2
  EC50: 2.23 µM
PAMPA permeability assay; 4 h, 10 µM, pH 7.4
  PAMPA, Mean Pe: 1.88 nm/s
PAMPA permeability assay; pH 7.4
  Papp at 4 h, 10 µM: 0.188 ×10⁻⁶ cm/s
Plasma stability, mice
  Stability in plasma (in words): significantly improved stability in plasma
Plasma stability, mice; 2 µM, pH 7.4
  Plasma stability, T½, min, mice: >289.1 min
Plasma stability, mice; pH 7.4
  half-life at 2 µM: > 289 min
Plasma stability, human; 2 µM
  Plasma stability, T½, min, human: >289.1 min
Plasma stability, human
  half-life at 2 µM: > 289 min
[6]
  PPB, mice, % Bound: 83.78%
[7]
  PPB, human, % Bound: 70.59%
In vitro [8]
  CC50 at 24 h: > 25 µM
physchem
  solubility kinetic: 164 µM (≈ 85.9 µg/mL)
CYP 2C9
  IC50: 15.6 µM
CYP 1A2
  IC50: 24.3 µM
CYP 2D6
  IC50: 6.5 µM
CYP 3A4
  IC50: 1450 nM
CYP 2C19
  IC50: 9.5 µM

## O=C(NC1CCC(F)(F)CC1)[C@@H](c1cnccn1)N(C(=O)CCl)c1ccc(-c2ccns2)cc1 [INSCoV-601I(l)]
SARS-CoV-2 M^PRO [1]
  IC50: 50 nM
SARS-CoV-2
  EC50: 14.1 µM
SARS-CoV-2 M^PRO [9]
  Binding mode in crystal structure: covalently bound to Cys145 residue of SARS-CoV-2 M^Pro

## CC(C(=O)NC1CCC(F)(F)CC1)(c1cnccn1)N(C(=O)CCl)c1ccc(-c2ccns2)cc1 (stereo not drawn) [INSCoV-601N, 2-(2-Chloro-N-(4-(isothiazol-5-yl)phenyl)acetamido)-N-(4,4-difluorocyclohexyl)-2-(pyrazin-2-yl)propanamide]
SARS-CoV-2 M^PRO [1]
  IC50: 120 nM
[2]
  microsomal CLint: 169 µL/min/mg
[3]
  microsomal CLint: 531 µL/min/mg
Caco-2 permeability; A to B, 2.00 µM, pH 7.40, read-out: Caco-2, Mean Papp,, A to B
  Papp A→B at 2 h, 2 µM: < 0.0434 ×10⁻⁶ cm/s
PAMPA permeability assay; pH 7.4, pH 7.40, 4 h, read-out: PAMPA, Mean Pe
  Papp at 4 h, 10 µM: 15.5 ×10⁻⁶ cm/s
Plasma stability, mice; pH 7.4
  half-life at 2 µM: 21.1 min
Plasma stability, human
  half-life at 2 µM: 32.6 min
physchem
  solubility kinetic: < 1.56 µM
In vitro [4]
  recovery: 0.1%
In vitro [5]
  recovery: 0.2%
CYP 2C9
  IC50: 3.25 µM
CYP 1A2
  IC50: 24.9 µM
CYP 2D6
  IC50: 0.706 µM
CYP 3A4
  IC50: 218 nM
CYP 2C19
  IC50: 5.65 µM

## Cc1cccc(C)c1OCC(=O)N[C@@H](Cc1ccccc1)[C@@H](O)C[C@H](Cc1ccccc1)NC(=O)[C@H](C(C)C)N1CCCNC1=O [Lopinavir, lopinavir, reference compound]
SARS-CoV-2
  EC50: 13.9 µM
[10]
  CC50 at 24 h: > 50 µM
